Results reported in patent publication US10300071B2, “Compositions and methods for inhibition of mycobacteria” (priority 2014, dated 2019).
≈ marks a conversion by molar mass, not a printed value. Read-outs that look alike come from different tables or passages of the source.

Columns and labels:
Mtb AccD6 = Mtb AccD6 (Mycobacterium tuberculosis, UniProt P9WQH5); assay: biochemical; type: biochemical; settings: for IC50: 300 μM malonyl-CoA, inhibitor 10 μM to 2000 μM; for Mtb AccD6 inhibition: preliminary studies of commercially available herbicides
Mtb strain mc^2-7000 = assay: microbe, parasite or virus in culture; type: cell-based, Mycobacterium tuberculosis; settings: for MIC: 6 days incubation at 37° C., resazurin, read on the 7th day; for whole Mycobacterium tuberculosis cell inhibition: preliminary studies of commercially available herbicides
[1] = Mycobacterium tuberculosis, 144 h, read-out: MIC
[2] = 20 uM, pH 8.0, read-out: inhibition at 20 uM- pH 8.0
[3] = 20 uM, pH 8.5, read-out: inhibition at 20 uM- pH 8.5

Sequence of Mtb AccD6 (P9WQH5 whole entry, looked up): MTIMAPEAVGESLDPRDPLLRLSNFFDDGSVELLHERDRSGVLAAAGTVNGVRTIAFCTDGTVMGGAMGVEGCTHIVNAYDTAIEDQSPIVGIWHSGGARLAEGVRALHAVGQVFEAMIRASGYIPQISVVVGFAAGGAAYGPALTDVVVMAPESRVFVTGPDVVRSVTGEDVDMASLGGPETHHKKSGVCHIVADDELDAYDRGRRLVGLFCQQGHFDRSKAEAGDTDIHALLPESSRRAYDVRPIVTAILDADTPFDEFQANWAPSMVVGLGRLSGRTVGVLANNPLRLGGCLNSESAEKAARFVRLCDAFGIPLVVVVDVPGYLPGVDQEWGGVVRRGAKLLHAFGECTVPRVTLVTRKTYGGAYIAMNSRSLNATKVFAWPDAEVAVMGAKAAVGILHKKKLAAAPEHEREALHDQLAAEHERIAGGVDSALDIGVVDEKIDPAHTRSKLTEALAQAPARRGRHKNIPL

| SMILES | IC50 (Mtb AccD6; read-out: IC50) | MIC (Mtb strain mc^2-7000; [1]) | other results |
| --- | --- | --- | --- |
| O=C(COc1ccc(Oc2cnc3cc(Cl)ccc3n2)cc1)NS(=O)(=O)c1ccccc1 [NZ-276, N-(benzenesulfonyl)-2-{4-[(6-chloroquinoxalin-2-yl)oxy]phenoxy}acetamide] | 7300 nM | 3.1 µM (≈ 1.46 µg/mL) | – |
| Clc1ccc2nc(Oc3ccc(OCc4ncco4)cc3)cnc2c1 [NZ-271, 6-chloro-2-[4-(1,3-oxazol-2-ylmethoxy)phenoxy]quinoxaline] | 11600 nM | > 50 µM | – |
| CCOC(=O)[C@@H](C)Oc1ccc(Oc2nc3ccccc3s2)cc1 [NZ-252, ethyl (2R)-2-[4-(1,3-benzothiazol-2-yloxy)phenoxy]propanoate] | – | – | IC50 (Mtb AccD6): Not Soluble; MIC (Mtb strain mc^2-7000): Not Soluble |
| CCOC(=O)[C@@H](C)Oc1ccc(Oc2nc3ccc([N+](=O)[O-])cc3s2)cc1 [NZ-260, ethyl (2R)-2-{4-[(6-nitro-1,3-benzothiazol-2-yl)oxy]phenoxy}propanoate] | – | 0.19 to 2.3 µM (≈ 0.0738 to 0.893 µg/mL) | – |
| CS(=O)(=O)NC(=O)COc1ccc(Oc2cnc3cc(Cl)ccc3n2)cc1 [NZ-259, 2-{4-[(6-chloroquinoxalin-2-yl)oxy]phenoxy}-N-methanesulfonylacetamide] | 1600 to 2600 nM | > 50 µM | – |
| CC(C)=NOCCOC(=O)C(C)Oc1ccc(Oc2cnc3cc(Cl)ccc3n2)cc1 (stereo not shown) [propaquizafop, 2-{[(propan-2-ylidene)amino]oxy}ethyl 2-{4-[(6-chloroquinoxalin-2-yl)oxy]phenoxy}propanoate, reference compound] | 2100 nM | 1.56 µM (≈ 0.692 µg/mL) | – |
| C[C@@H](Oc1ccc(Oc2nc3ccc(Br)cc3s2)cc1)C(=O)O [NZ-253, (2R)-2-{4-[(6-bromo-1,3-benzothiazol-2-yl)oxy]phenoxy}propanoic acid] | > 15000 nM | – | – |
| Cc1cccc(Oc2nc3ccc(Cl)cc3s2)c1 [NZ-291, 6-chloro-2-(3-methylphenoxy)-1,3-benzothiazole] | – | 25 µM (≈ 6.89 µg/mL) | inhibition at 20 µM (Mtb AccD6; read-out: inhibition at 20 uM): 30% |
| CC(Oc1ccc(Oc2ccc(Cl)cc2Cl)cc1)C(=O)O (stereo not shown) [diclofop, reference compound] | – | – | Mtb AccD6 inhibition (Mtb AccD6): only haloxyfop exhibited Mtb AccD6 inhibition; whole Mycobacterium tuberculosis cell inhibition (Mtb strain mc^2-7000): none exhibited whole Mycobacterium tuberculosis cell inhibition |
| COC(=O)Cc1ccc(Oc2nc3ccc(Cl)cc3o2)cc1 [NZ-302, methyl 2-{4-[(6-chloro-1,3-benzoxazol-2-yl)oxy]phenyl}acetate] | – | 3 µM | inhibition at 20 µM (Mtb AccD6; read-out: inhibition at 20 uM): 50% |
| CCOC(=O)[C@@H](C)Oc1ccc(Oc2nc3ccc(Cl)cc3s2)cc1 [NZ-246, ethyl (2R)-2-{4-[(6-chloro-1,3-benzothiazol-2-yl)oxy]phenoxy}propanoate] | – | 3 µM (≈ 1.13 µg/mL) | – |
| CC(C)(C)OC(=O)Nc1ccc(Oc2nc3ccc(F)cc3s2)cc1 [NZ-412, terl-butyl N-{4-[(6-fluoro-1,3-benzothiazol-2-yl)oxy]phenyl}carbamate] | – | – | inhibition at 20 µM (Mtb AccD6; read-out: inhibition at 20 uM): 17% |
| O=C(COc1ccc(Oc2cnc3cc(Cl)ccc3n2)cc1)NS(=O)(=O)C(F)(F)F [NZ-275, 2-{4-[(6-chloroquinoxalin-2-yl)oxy]phenoxy}-N-trifluoromethanesulfonylacetamide] | 3800 nM | 12.5 µM (≈ 5.77 µg/mL) | – |
| CNC(=O)COc1ccc(Oc2cnc3cc(Cl)ccc3n2)cc1 [NZ-267, 2-{4-[(6-chloroquinoxalin-2-yl)oxy]phenoxy}-N-methylacetamide] | 2400 nM | > 25 µM | – |
| Clc1ccc2nc(Oc3ccc(OCc4ncc[nH]4)cc3)cnc2c1 [NZ-273, 6-chloro-2-[4-(1H-imidazol-2-ylmethoxy)phenoxy]quinoxaline] | 7900 nM | > 25 µM | – |
| O=C(O)/C=C/c1ccc(Oc2nc3ccc(Cl)cc3s2)cc1 [NZ-283, (2E)-3-{4-[(6-chloro-1,3-benzothiazol-2-yl)oxy]phenyl}prop-2-enoic acid] | – | 12 µM (≈ 3.98 µg/mL) | inhibition at 20 µM (Mtb AccD6; read-out: inhibition at 20 uM): 33% |
| Clc1ccc2nc(Oc3ccc(OCc4nnn[nH]4)cc3)cnc2c1 [NZ-268, 6-chloro-2-[4-(1H-1,2,3,4-tetrazol-5-ylmethoxy)phenoxy]quinoxaline] | 1700 nM | > 12.5 µM | – |
| C=CCO/N=C(\CCC)C1=C(O)C(C(=O)OC)C(C)(C)CC1=O (stereo not shown) [alloxydim, reference compound] | – | – | Mtb AccD6 inhibition (Mtb AccD6): only haloxyfop exhibited Mtb AccD6 inhibition; whole Mycobacterium tuberculosis cell inhibition (Mtb strain mc^2-7000): none exhibited whole Mycobacterium tuberculosis cell inhibition |
| C[C@@H](Oc1ccc(Oc2nc3ccc(Cl)cc3s2)cc1)C(=O)O [NZ-247, (2R)-2-{4-[(6-chloro-1,3-benzothiazol-2-yl)oxy]phenoxy}propanoic acid] | 2500 nM | – | – |
| CC(C)(C)OC(=O)NCC(=O)Nc1ccc(Oc2nc3ccc(F)cc3s2)cc1 [NZ-415, tert-butyl N-[({4-[(6-fluoro-1,3-benzothiazol-2-yl)oxy]phenyl}carbamoyl)methyl]carbamate] | 20000 nM | – | – |
| CCOC(COc1ccc(Oc2cnc3cc(Cl)ccc3n2)cc1)OCC [NZ-272, 6-chloro-2-[4-(2,2-diethoxyethoxy)phenoxy]quinoxaline] | 5800 nM | > 12.5 µM | – |
| COC(=O)c1ccc(Oc2nc3ccc(Cl)cc3s2)cc1 [NZ-285, methyl 4-[(6-chloro-1,3-benzothiazol-2-yl)oxy]benzoate] | – | 12 µM (≈ 3.84 µg/mL) | IC50 (Mtb AccD6): Not Active |

| SMILES | IC50 (Mtb AccD6; read-out: IC50) | MIC (Mtb strain mc^2-7000; [1]) | other results |
| --- | --- | --- | --- |
| O=C(COc1ccc(Oc2cnc3cc(Cl)ccc3n2)cc1)N1CCCCC1 [NZ-265, 2-{4-[(6-chloroquinoxalin-2-yl)oxy]phenoxy}-1-(piperidin-1-yl)ethan-1-one] | 570 nM | 3 µM (≈ 1.19 µg/mL) | – |
| O=C(O)c1ccc(Oc2nc3ccc(Cl)cc3s2)cc1 [NZ-288, 4-[(6-chloro-1,3-benzothiazol-2-yl)oxy]benzoic acid] | 12000 nM | 25 µM (≈ 7.64 µg/mL) | – |
| CC(C)NC(=O)Nc1ccc(Oc2nc3ccc(Cl)cc3s2)nc1 [WuXi-N6, 1-{6-[(6-chloro-1,3-benzothiazol-2-yl)oxy]pyridin-3-yl}-3-(propan-2-yl)urea] | – | – | inhibition at 20 µM (Mtb AccD6; [2]): 11%; inhibition at 20 µM (Mtb AccD6; [3]): 17% |
| NCC(=O)Nc1ccc(Oc2nc3ccc(F)cc3s2)cc1 [NZ-417, 2-amino-N-{4-[(6-fluoro-1,3-benzothiazol-2-yl)oxy]phenyl}acetamide] | – | – | inhibition at 20 µM (Mtb AccD6; read-out: inhibition at 20 uM): 10% |
| O=C(COc1ccc(Oc2cnc3cc(Cl)ccc3n2)cc1)N1CCNCC1 [NZ-277, 2-{4-[(6-chloroquinoxalin-2-yl)oxy]phenoxy}-1-(piperazin-1-yl)ethan-1-one] | 5600 nM | 12.5 µM (≈ 4.99 µg/mL) | – |
| Nc1ccc(Oc2nc3ccc(F)cc3s2)cc1 [NZ-413, 4-[(6-fluoro-1,3-benzothiazol-2-yl)oxy]aniline] | 14000 nM | – | – |
| C[C@@H](Oc1ccc(Oc2nc3ccccc3s2)cc1)C(=O)O [NZ-254, (2R)-2-[4-(1,3-benzothiazol-2-yloxy)phenoxy]propanoic acid] | > 15000 nM | – | – |
| CONC(=O)CN1CCC(Oc2nc3ccc(Cl)cc3s2)CC1 [WUXI-N4, 2-{4-[(6-chloro-1,3-benzothiazol-2-yl)oxy]piperidin-1-yl}-N-methoxyacetamide] | – | – | inhibition at 20 uM (Mtb AccD6; 20 uM): No inhibition at 20 uM |
| O=C(O)COc1ccc(Oc2cnc3cc(Cl)ccc3n2)cc1 [NZ-257, 2-{4-[(6-chloroquinoxalin-2-yl)oxy]phenoxy}acetic acid] | 1500 to 1900 nM | – | – |
| CNC(=O)Cc1ccc(Oc2nc3ccc(F)cc3s2)cc1F [NZ-410, 2-{2-fluoro-4-[(6-fluoro-1,3-benzothiazol-2-yl)oxy]phenyl}-N-methylacetamide] | 380 nM | – | – |
| CNC(=O)Cc1ccc(Oc2nc3cc(F)c(F)cc3s2)cc1F [NZ-411, 2-{4-[(5,6-difluoro-1,3-benzothiazol-2-yl)oxy]-2-fluorophenyl}-N-methylacetamide] | 240 nM | – | – |
| C[C@@H](Oc1ccc(Oc2nc3ccc([N+](=O)[O-])cc3s2)cc1)C(=O)O [NZ-261, (2R)-2-{4-[(6-nitro-1,3-benzothiazol-2-yl)oxy]phenoxy}propanoic acid] | 1800 nM | – | – |
| COC(=O)COc1ccc(Oc2cnc3cc(Cl)ccc3n2)cc1 [NZ-256, methyl 2-{4-[(6-chloroquinoxalin-2-yl)oxy]phenoxy}acetate] | – | 1.5 µM | – |
| CCOC(=O)[C@@H](C)Oc1ccc(Oc2nc3ccc(Br)cc3s2)cc1 [NZ-250, ethyl (2R)-2-{4-[(6-bromo-1,3-benzothiazol-2-yl)oxy]phenoxy}propanoate] | – | 3.12 µM (≈ 1.32 µg/mL) | – |
| C[C@@H](Oc1ccc(Oc2nc3ccc(F)cc3s2)cc1)C(=O)O [NZ-255, (2R)-2-{4-[(6-fluoro-1,3-benzothiazol-2-yl)oxy]phenoxy}propanoic acid] | 1200 nM | – | – |
| CONC(=O)CCN1CCC(Oc2nc3ccc(Cl)cc3s2)CC1 [WUXI-N5, 3-{4-[(6-chloro-1,3-benzothiazol-2-yl)oxy]piperidin-1-yl}-N-methoxypropanamide] | – | – | inhibition at 20 uM (Mtb AccD6; 20 uM): No inhibition at 20 uM |
| CN1CCN(C(=O)Cc2ccc(Oc3nc4cc(F)c(F)cc4s3)cc2)CC1 [NZ-409, 2-{4-[(5,6-difluoro-1,3-benzothiazol-2-yl)oxy]phenyl}-1-(4-methylpiperazin-1-yl)ethan-1-one] | 660 nM | – | – |
| CC(Oc1ccc(Oc2ncc(C(F)(F)F)cc2Cl)cc1)C(=O)O (racemic) [haloxyfop, (RS)-2-{4-[3-chloro-5-(trifluoromethyl)-2-pyridyloxy]phenoxy}propionic acid, reference compound] | – | – | whole Mycobacterium tuberculosis cell inhibition (Mtb strain mc^2-7000): none exhibited whole Mycobacterium tuberculosis cell inhibition |
| CC(C)NC(=O)Nc1ccc(Oc2nc3ccc(Cl)cc3s2)cn1 [WuXi-N8, 1-{5-[(6-chloro-1,3-benzothiazol-2-yl)oxy]pyridin-2-yl}-3-(propan-2-yl)urea] | – | – | inhibition at 20 µM (Mtb AccD6; [2]): 40%; inhibition at 20 µM (Mtb AccD6; [3]): 47% |
| NCCC(=O)Nc1ccc(Oc2nc3ccc(F)cc3s2)cc1 [NZ-416, 3-amino-N-{4-[(6-fluoro-1,3-benzothiazol-2-yl)oxy]phenyl}propanamide] | – | – | inhibition at 20 µM (Mtb AccD6; read-out: inhibition at 20 uM): 20% |
| CC(C)NC(=O)Nc1ccc(Oc2nc3ccc(Cl)cc3s2)nn1 [WuXi-N7, 1-{6-[(6-chloro-1,3-benzothiazol-2-yl)oxy]pyridazin-3-yl}-3-(propan-2-yl)urea] | – | – | inhibition at 20 µM (Mtb AccD6; read-out: inhibition at 20 uM): 18% |
